Earlier results in US6524619B2, “Dosage forms useful for modifying conditions and functions associated with hearing loss and/or tinnitus” (Chronorx, Inc., priority 2000, dated 2003).
Where two headings read alike, the source gives them in different places. One block for each compound: values may come before it.

Experiments:
[1] = not given; remark: listed apart in the source
GSHPx [2] = details: within 30 minutes, exogenously administered
[3] = 80 mg orally
NMDA receptor = details: rat, iontophoresis
[4] = 3 mg ingested, within 20 min
[5] = system: outer cochlear hair cells; details: rat, postmortem
[6] = not given; remark: listed apart in the source
tinnitus and SNHL = details: marginally Zn^2+ deficient elderly adults
[7] = system: bovine aortic endothelial cells (BAECs); details: LA added before AGE exposure
[8] = rats, oral (C14) LA
[9] = humans, 200 mg oral dose
red cell membrane = details: 300 mg tid after meals for 3 months
GSHPx [10] = details: following supplementation
[11] = not given; remark: listed apart in the source
RBC GSH system = details: selenium treatment
peritoneal macrophages = details: mice
[12] = levels up to 1 mg per day
[13] = one small study
[14] = 100 mg oral
senile deafness = details: 1 microgram/day for 6 to 10 months, 12 patients suspected of abnormal bone metabolism
[15] = system: hydrogen peroxide-induced platelet aggregation
[16] = system: blood viscosity and red cell membrane lipid peroxidation; details: 300 mg tid 3 months, Type 2 diabetes mellitus
[17] = in vivo
[18] = system: noise-induced permanent hearing threshold shifts (NIPTS); details: 167 mg elemental Mg^2+ daily, 2 months, 300 recruits

Compound: C[C@@H]1C(=O)O[C@H]2C[C@@]34[C@H]5C[C@@H](C(C)(C)C)[C@]36[C@@H](OC(=O)[C@@H]6O)O[C@@]4(C(=O)O5)[C@]21O [Ginkgolide A]
bioavailability coefficient (FAUC), mean (given orally during fasting): 0.80 (+/−0.09)

increase of CoQ10 in plasma ([1]; granular preparations): 168%
elevation of CoQ10 in plasma ([1]; supplemental oil-based capsules): 178%
Compound: COC1=C(OC)C(=O)C(C/C=C(\C)CC/C=C(\C)CC/C=C(\C)CC/C=C(\C)CC/C=C(\C)CC/C=C(\C)CC/C=C(\C)CC/C=C(\C)CC/C=C(\C)CCC=C(C)C)=C(C)C1=O [CoQ10, Coenzyme Q10]

Compound: COc1ccc2[nH]cc(CCNC(C)=O)c2c1 [Melatonin, N-acetyl-5-methoxytryptamine]
rise in GSHPx activity in the brain (GSHPx [2]): 2 fold
absorption constant (ka) [3]: 1.72 h⁻¹
elimination constant (kel) [3]: 0.87 h⁻¹
time of peak serum melatonin after administration [3]: 60 to 150 min
time peak serum melatonin remains stable [3]: approximately 1.5 hours
excitatory response of the cortical striatum (NMDA receptor): potent attenuation
serum melatonin [4]: 3561 ± 1201 pg/mL
prolongation of hair cell activity after death compared to untreated animals [5]: up to 7 times

Compound: [Zn+2] [Zn^2+, Zinc]
increase of mean plasma Zn^+2 above pre-load levels ([6]; 11-fold increase in intake): 37%
ingested Zn^+2 entering the plasma ([6]; in vivo): About 37%
time by which gastrointestinal absorption is essentially completed ([6]; in vivo): ≤ 4 h
reduction of tinnitus and SNHL (tinnitus and SNHL): about one-third
excitatory response of the cortical striatum (NMDA receptor): potent attenuation

plasma concentration-time curve area (FAUC) relative to intravenous administration [8]: 66%
absolute bioavailability [9]: 29.1+/−10.3%
Compound: O=C(O)CCCCC1CCSS1 (centres unmarked) [LA, 1,2-dithiolane-3-pentanoic acid]
depletion of GSH and ascorbic acid [7]: completely prevents depletion of GSH and ascorbic acid

Compound: CC(C)(C)[C@]1(O)CC2OC(=O)CC23C(=O)OC2OC(=O)[C@H](O)C231 (some centres unmarked) [Bilobalide]
bioavailability coefficient (FAUC), mean (given orally during fasting): 0.79(+/−0.3)

Compound: Cc1c(C)c2c(c(C)c1O)CC[C@@](C)(CCC[C@H](C)CCC[C@H](C)CCCC(C)C)O2 [alpha-tocopherol, D, alpha-tocopherol]
reduction of lipid peroxidation stress in red cell membrane (MDA) (red cell membrane): 0.17 ± 0.13 nmol
GSHPx activities (GSHPx [10]): increase as much as twofold

increase in the AUC ([11]; 10-fold increase in the dose): 62 fold
AUC relative to Enduramide ([11]; higher doses): 1.7 times
Compound: NC(=O)c1cccnc1 [standard nicotinamide, nicotinamide]

Compound: [Se] [Selenium]
elevation of RBC GSHPx (RBC GSH system): 64%
reduction in the RBC oxidized GSH content (RBC GSH system): 39%
increase in GSH content (RBC GSH system; RBC): 11%
increase in glutathione reductase activities (RBC GSH system; RBC): 57%
increase in GSH content in peritoneal macrophages (peritoneal macrophages): 36%
increase in GSHPx activity in peritoneal macrophages (peritoneal macrophages): 30%
reduction in cell-mediated oxidation of LDL and aortic atherosclerotic lesions (peritoneal macrophages): 46%

Compound: [Cr] [Cr, Chromium]
signs of toxicity [12]: no documented signs of toxicity
average apparent net absorption of Cr [13]: 1.8%

time of second plasma peak after dosing ([14]; most of the subjects): 24 h
mean plasma CoQ10 level peak ([14]; sixteen healthy male subjects): 1.004+/−0.37 micrograms/ml
Compound: d5-CoQ10

Compound: C=C1/C(=C\C=C2/CCC[C@]3(C)[C@@H]([C@H](C)CCCC(C)C)CC[C@@H]23)C[C@@H](O)C[C@@H]1O [1 alpha-(OH)D3]
hearing improvement (senile deafness): hearing improvement in six ears (four patients)

bioavailability coefficient (FAUC), mean (in vivo, po): 0.88(+/−0.21)
Compound: CC1C(=O)OC2C(O)C34C5CC(C(C)(C)C)C36C(OC(=O)C6O)OC4(C(=O)O5)C12O (centres unmarked) [Ginkgolide B]

Compound: O=C(O)c1cccnc1 [Nicotinic acid, reference compound]
inhibitory effect upon hydrogen peroxide-induced platelet aggregation [15]: no inhibitory effect

Compound: Cc1c(C)c2c(c(C)c1OC(=O)c1cccnc1)CC[C@@](C)(CCC[C@H](C)CCC[C@H](C)CCCC(C)C)O2 [Alpha-tocopherol nicotinate, alpha tocopherol nicotinate]
reduction of malondialdehyde (MDA) in red cell membrane [16]: 0.17 ± 0.13 nmol/L
reduction of blood viscosity ([16]; gamma=1.5 s(−1)): −2.23 +/−2.82
inhibitory effect upon hydrogen peroxide-induced platelet aggregation [15]: greater than that of either vitamin E alone or the simultaneous use of vitamin E and nicotinic acid

Compound: [Mg+2] [Mg^2+, Magnesium]
excitatory response of the cortical striatum (NMDA receptor): potent attenuation
maximum intestinal bulk absorption [17]: 8 mEq per meal
NIPTS frequency and severity [18]: significantly more frequent and more severe in the placebo group
